For data set [1] the following is noted: from CCOC(=O)c1[nH]c2c(-c3c(N(C)CCCCCO)nn(C)c3C)c(Cl)ccc2c1CCCOc1cccc2cc(F)ccc12, amine bond, di-tert-butyl azodicarboxylate/PPh3, THF, 15.7 mM, 64.0 h.
The subject of data set [2] is SUDHL10. The experiment in a line: Induction of caspase-3/7 activity (Assay 4), SUDHL10. The following applies: SUDHL10 cells. The data set is classed as cell-based. An outline of the steps: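 Luminescent Caspase-Glo 3/7 read-out after a 3 h, 37 °C compound exposure of the DLBCL line SUDHL10. Values are background-corrected using medium-only wells.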
Data set [3] relates to SUDHL5. The experiment in a line: Antiproliferation assay 7, SUDHL5. The data set is classed as cell-based. The following applies: SUDHL5 cells, CellTiter-Glo, read-out: Antiproli SUDHL5 IC50 (median). The method in brief: (§1)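 Proliferation over 72 h at 37° C was assessed by luminescent cell viability reagent, referenced to a day 0 plate.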
Background: In ATP-based viability assays light output follows the ATP content of the culture.

Another data set has as its system MV-4-11. The experiment in a line: Antiproliferation assay 7, MV-4-11. The data set is classed as cell-based. The following applies: MV-4-11 cells, CellTiter-Glo, read-out: Antiproli MV-4-11 IC50 median. An outline of the steps:
as §1

Another data set concerns SK-BR-3. The data set is described as follows: Antiproliferation assay 7, SK-BR-3. The following applies: SK-BR-3 cells, 72 hours, CellTiter-Glo, read-out: Antiproli SK-BR-3 IC50 median. The data set is classed as cell-based. An outline of the steps: as §1
The subject of another data set is A2058. The experiment in a line: Antiproliferation assay 7, A2058. The data set is classed as cell-based. The following applies: A2058 cells, 72 hours, CellTiter-Glo, read-out: Antiproli A2058 IC50 median. As to the method: (§2) Assessment of the Anti-Proliferative Effect of Compounds in Different Cell Lines
(§3) The impact of compounds on the proliferation of different cell lines was assessed using the CellTiter-Glo® Luminescent Cell Viability reagent from Promega (G7573).
(§4) In parallel, cells were plated in a reference (day 0) plate for time zero determination.
(§5) Rim wells were excluded. The cells were incubated for 72 hours in a humidified incubator at 37° C. The day 0 plate was measured by adding 30 μL/well of CTG solution (CellTiter-Glo® Luminescent Cell Viability reagent, Promega G7573) to time zero wells in the reference plate followed by a 10 minutes incubation and luminescence reading at 0.1 ms. using the PHERAstar FS microplate reader (BMG Labtech).
(§6) After 72 hours incubation, the treated plates were measured in the same way as the day 0 plate mentioned above.

Data set [4] concerns SUDHL5. The data set is described as follows: Induction of caspase-3/7 activity (Assay 4), SUDHL5. The data set is classed as cell-based. The following applies: SUDHL5 cells. An outline of the steps:
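DLBCL cells treated with compounds for 3 hours at 37° C. Caspase-3/7 activity measured by Caspase-Glo 3/7 luminescence, with medium-only background subtracted.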

In another data set the test system is AMO-1. The experiment in a line: Antiproliferation assay 7, AMO-1. The data set is classed as cell-based. The following applies: AMO-1 cells, CellTiter-Glo, read-out: Antiproli AMO-1 IC50 median. An outline of the steps:
as §1

The subject of data set [5] is SUDHL10. The experiment in a line: Induction of cytotoxicity (Assay 6), SUDHL10.
Data set [6] relates to SUDHL10. The data set is described as follows: Antiproliferation assay 7, SUDHL10. The data set is classed as cell-based. The following applies: SUDHL10 cells, CellTiter-Glo, read-out: Antiproli SUDHL10 IC50 (median). The method in brief:
as §1

Another data set relates to NCI-H23. The experiment in a line: Antiproliferation assay 7, NCI-H23. The data set is classed as cell-based. The following applies: NCI-H23 cells, 72 hours, CellTiter-Glo, read-out: Antiproli NCI-H23 IC50 median. As to the method:
as §2, §3, §4, §5, §6

In a further data set the test system is HMC-1-8. The experiment in a line: Antiproliferation assay 7, HMC-1-8. To be noted: HMC-1-8 cells, CellTiter-Glo, read-out: Antiproli HMC-1-8 IC50 median. The data set is classed as cell-based. An outline of the steps: as §1
The subject of data set [7] is SUDHL5.
The test system of data set [8] is SUDHL10.
In another data set the test system is SNU-389. The data set is described as follows: Antiproliferation assay 7, SNU-389. The data set is classed as cell-based. To be noted: SNU-389 cells, 72 hours, CellTiter-Glo; read-out: Antiproli SNU-389 IC50 median. As to the method: as §2, §3, §4, §5, §6
A further data set deals with KYSE-180. The data set is described as follows: Antiproliferation assay 7, KYSE-180. The data set is classed as cell-based. To be noted: Homo sapiens; KYSE-180 cells, 72 hours, CellTiter-Glo; read-out: Antiproli KYSE-180 IC50 median. As to the method:
as §2, §3, §4, §5, §6

For data set [9], the system named is SUDHL5. The data set is described as follows: Induction of cytotoxicity (Assay 6), SUDHL5.
The next data set relates to T47D. The experiment in a line: Antiproliferation assay 7, T47D. The following applies: T47D cells, 72 hours, CellTiter-Glo; read-out: Antiproli T47D IC50 median. The data set is classed as cell-based. As to the method:
as §2, §3, §4, §5, §6

Setting [10] is: Homo sapiens, SU-DHL10, 3 h, Caspase-Glo 3/7, read-out: Caspase SUDHL10 EC50 (median).
Setting [11] is: Homo sapiens, SU-DHL-5, 3 h, Caspase-Glo 3/7, read-out: Caspase SUDHL5 EC50 (median).
Where [12] appears, read: Homo sapiens, SU-DHL10, 5 h, read-out: Cytotox SUDHL10 IC50 (median), SUDHL10 cells, 5 hours, CellTiter-Glo.
[13] abbreviates: 3 hours, Caspase-Glo 3/7, read-out: Caspase SUDHL10 EC50 (median).
The mark [14] stands for this setting: 3 hours, Caspase-Glo 3/7, read-out: Caspase SUDHL5 EC50 (median).
[15] abbreviates: read-out: Cytotox SUDHL10 IC50 (median), SUDHL10 cells, 5 hours, CellTiter-Glo.
Where [16] appears, read: read-out: Cytotox SUDHL5 IC50 (median), SUDHL5 cells, 5 hours, CellTiter-Glo.

This passage reports ring closure, yield of all isomers, EC50 and IC50 results from US11447504B2, “Macrocyclic chlorine substituted indole derivatives” (Bayer Aktiengesellschaft, priority 2017, dated 2022).

The structures appear in SMILES notation. Structures can show the parent of a compound that is named as a salt. Where two headings read alike, the source gives them in different places.

`CCOC(=O)c1c(CCCOc2cccc3cc(F)ccc23)c2ccc(Cl)c3c2n1CCCCCN(C)c1nn(C)c(C)c1-3`: the ring closure, yield of all isomers in [1] is 44.8%.
For `Cc1nn(C)c2c1-c1c(Cl)ccc3c(CCCOc4cccc5ccccc45)c(C(=O)O)n(c13)CCCCOC2` (racemic) [Example 2, rac-4-chloro-1,3-dimethyl-7-[3-(naphthalen-1-yloxy)propyl]-1,10,11,12,13,15-hexahydropyrazolo[4′,3′:9,10][1,6]oxazacycloundecino[8,7,6-hi]indole-8-carboxylic Acid], the results for the concentration for a half-maximal effect (EC50) in the data set on SUDHL10 [2] (setting [10]) and with SUDHL5 [4] (setting [11]) were 3.8 µM and 0.95 µM, respectively. In addition, the half-inhibitory concentration (IC50) (as a rule, the concentration at which inhibition is half-maximal) was 2.8 µM in the data set on SUDHL5 [3] (Homo sapiens, SU-DHL-5, 72 h); 1.61 µM in the data set on MV-4-11 (Homo sapiens, MV4-11, 72 h); 8.27 µM in the data set on SK-BR-3 (Homo sapiens); greater than 30 µM with A2058 (Homo sapiens); 4.86 µM in the data set on AMO-1 (Homo sapiens, AMO1, 72 h); 3 µM with SUDHL10 [5] (setting [12]). For the same molecule, the IC50 in the data set on SUDHL10 [6] (Homo sapiens, SU-DHL10, 72 h) was determined as 2.4 µM; in the data set with NCI-H23 (Homo sapiens), 14.6 µM; in the data set with HMC-1-8 (72 h), 15.3 µM.
As to `Cc1c2c(nn1C)COCCCCn1c(C(=O)O)c(CCCOc3cccc4ccccc34)c3ccc(Cl)c-2c31` (racemic) [Example 25, (rac)-4-chloro-2,3-dimethyl-7-[3-(naphthalen-1-yloxy)propyl]-2,10,11,12,13,15-hexahydropyrazolo[4′,3′:9,10][1,6]oxazacycloundecino[8,7,6-hi]indole-8-carboxylic Acid], the EC50 – broadly, the concentration that produces a half-maximal response – on SUDHL10 [2] (setting [13]) is 1.2 µM; on SUDHL5 [4] (setting [14]), 0.39 µM. The IC50 was found to be 0.56 µM in the data set on SUDHL5 [3] (72 hours); 2.78 µM with MV-4-11 (72 hours); 12.9 µM in the data set with SK-BR-3; 0.53 µM with SUDHL5 [7]; 21.9 µM in the data set on A2058; 1.31 µM in the data set on AMO-1 (72 hours). In addition, the IC50 with NCI-H23 was found to be 6.01 µM; in the data set with HMC-1-8 (72 hours) it was 6.48 µM; in the data set with SUDHL10 [8], 0.93 µM.
As for `Cc1nn(C)c2c1-c1c(Cl)ccc3c(CCCOc4cccc5ccccc45)c(C(=O)O)n(c13)CCCCOC2` (single isomer, unassigned; enantiomer 1) [Example 3, 4-chloro-1,3-dimethyl-7-[3-(naphthalen-1-yloxy)propyl]-1,10,11,12,13,15-hexahydropyrazolo[4′,3′:9,10][1,6]oxazacycloundecino[8,7,6-hi]indole-8-carboxylic Acid (Enantiomer 1)], the 50% inhibitory concentration (IC50) with MV-4-11 (Homo sapiens, MV4-11, 72 h) is 0.766 µM; in the data set on SK-BR-3 (Homo sapiens) it was 7.37 µM; with A2058 (Homo sapiens), greater than 30 µM; in the data set with AMO-1 (Homo sapiens, AMO1, 72 h) it was 2.51 µM; in the data set with SNU-389 it was 20.6 µM; with SUDHL10 [6] (72 hours) it was 1.7 µM. The IC50 in the data set on NCI-H23 (Homo sapiens) is 6.12 µM; in the data set on HMC-1-8 (72 h), 8.28 µM.
As to `Cc1c2c(nn1C)CN(C)CCCCn1c(C(=O)O)c(CCCOc3cccc4ccccc34)c3ccc(Cl)c-2c31` (single isomer, unassigned; enantiomer 1) [Example 12, (+)-4-chloro-2,3,14-trimethyl-7-[3-(naphthalen-1-yloxy)propyl]-10,11,12,13,14,15-hexahydro-2H-pyrazolo[3′,4′:8,9][1,6]diazacycloundecino[10,11,1-hi]indole-8-carboxylic acid-N-ethylethanamine Salt (Enantiomer 1)], the IC50 with KYSE-180 was determined as 3.79 µM; with SUDHL5 [3] (Homo sapiens, SU-DHL-5, 72 h), 0.17 µM; in the data set on MV-4-11 (Homo sapiens, MV4-11, 72 h), 0.441 µM; in the data set with SK-BR-3 (Homo sapiens), 0.667 µM; with A2058 (Homo sapiens) it was 4.83 µM; with AMO-1 (Homo sapiens, AMO1, 72 h) it was 0.335 µM. The IC50 with SUDHL10 [5] (setting [12]) was 0.14 µM; with SUDHL10 [6] (Homo sapiens, SU-DHL10, 72 h), 0.14 µM; in the data set with SUDHL5 [9] (Homo sapiens, SU-DHL-5, 5 h, read-out: Cytotox SUDHL5 IC50 (median), SUDHL5 cells, 5 hours, CellTiter-Glo), 0.083 µM; in the data set with HMC-1-8 (72 h), 1.58 µM. In addition, the EC50 was 0.097 µM in the data set on SUDHL10 [2] (setting [10]) and 0.064 µM in the data set on SUDHL5 [4] (setting [11]).
On to `Cc1c2c(nn1C)COCCCCn1c(C(=O)O)c(CCCOc3cccc4cc(F)ccc34)c3ccc(Cl)c-2c31` (single isomer, unassigned; enantiomer 1) [Example 15, (+)-4-chloro-7-{3-[(6-fluoronaphthalen-1-yl)oxy]propyl}-2,3-dimethyl-2,10,11,12,13,15-hexahydropyrazolo[4′,3′:9,10][1,6]oxazacycloundecino[8,7,6-hi]indole-8-carboxylic acid-N-ethylethanamine Salt (Enantiomer 1)], for which the EC50 at SUDHL10 [2] (setting [13]) and on SUDHL5 [4] (setting [14]) was 0.15 µM throughout. In addition, the IC50 stood at 0.19 µM in the data set on SUDHL5 [3] (72 hours); 0.461 µM with MV-4-11 (72 hours); 5.86 µM in the data set with A2058; 0.53 µM in the data set on AMO-1 (72 hours); 11.9 µM in the data set on T47D; 0.23 µM in the data set with SUDHL10 [5] (setting [15]). Moreover, the half-maximal inhibitory concentration (IC50) in the data set on SUDHL10 [6] (72 hours) turned out to be 0.2 µM; in the data set on SUDHL5 [9] (setting [16]), 0.14 µM; in the data set with HMC-1-8 (72 hours), 1.36 µM.
Regarding `Cc1c2c(nn1C)COCCCCn1c(C(=O)O)c(CCCOc3cccc4ccccc34)c3ccc(Cl)c-2c31` (single isomer, unassigned; enantiomer 1) [Example 26, 4-chloro-2,3-dimethyl-7-[3-(naphthalen-1-yloxy)propyl]-2,10,11,12,13,15-hexahydropyrazolo-[4′,3′:9,10][1,6]oxazacycloundecino[8,7,6-hi]indole-8-carboxylic acid-N-ethylethanamine Salt (Enantiomer 1)], the values for the EC50 at SUDHL10 [2] (setting [13]) and on SUDHL5 [4] (setting [14]) were 0.41 µM and 0.35 µM, respectively. Moreover, the half-inhibitory concentration (IC50) in the data set with SUDHL5 [3] (72 hours) came out at 0.58 µM; with MV-4-11 (72 hours), 1.81 µM; in the data set on SK-BR-3 it was 3.3 µM; in the data set with A2058 it was 14.9 µM; with AMO-1 (72 hours), 0.996 µM; with SUDHL10 [5] (setting [15]), 0.5 µM. The IC50 in the data set on NCI-H23 came to 2.32 µM; in the data set on SUDHL5 [9] (setting [16]), 0.46 µM; in the data set on HMC-1-8 (72 hours), 2.89 µM.
